Test results reported in the supplement of paper PMC11451515.

Test system: P12-Ichikawa
Test: cell viability relative to DMSO control; higher = less cytotoxic
Settings: 48 h
Outline: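 Library compounds in DMSO were pin-dosed in an 11-point threefold series (47 μM to 0.79 nM) onto leukemia cells in 1536-well plates (5 μl). Plates held 500 cells/well of NOMO1 or SEM or 1000 cells/well of P12-Ichikawa, each adapted for at least four passages in each medium. Luminescence was read with CellTiter-Glo One after 48 h at 37°C. Viability means the per-plate percentage relative to DMSO wells, using cell-free wells as background.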

[1] = HPLM + 10% dialyzed FBS, 0.000781 µM
[2] = HPLM + 10% dialyzed FBS, 0.00234 µM
[3] = HPLM + 10% dialyzed FBS, 0.00702 µM
[4] = HPLM + 10% dialyzed FBS, 0.0211 µM
[5] = HPLM + 10% dialyzed FBS, 0.0632 µM
[6] = HPLM + 10% dialyzed FBS, 0.19 µM
[7] = HPLM + 10% dialyzed FBS, 0.569 µM
[8] = HPLM + 10% dialyzed FBS, 1.71 µM
[9] = HPLM + 10% dialyzed FBS, 5.12 µM
[10] = HPLM + 10% dialyzed FBS, 15.4 µM
[11] = HPLM + 10% dialyzed FBS, 46.1 µM
[12] = RPMI 5 mM glucose + 10% FBS, 0.000781 µM
[13] = RPMI 5 mM glucose + 10% FBS, 0.00234 µM
[14] = RPMI 5 mM glucose + 10% FBS, 0.00702 µM
[15] = RPMI 5 mM glucose + 10% FBS, 0.0211 µM
[16] = RPMI 5 mM glucose + 10% FBS, 0.0632 µM
[17] = RPMI 5 mM glucose + 10% FBS, 0.19 µM
[18] = RPMI 5 mM glucose + 10% FBS, 0.569 µM
[19] = RPMI 5 mM glucose + 10% FBS, 1.71 µM
[20] = RPMI 5 mM glucose + 10% FBS, 5.12 µM
[21] = RPMI 5 mM glucose + 10% FBS, 15.4 µM
[22] = RPMI 5 mM glucose + 10% FBS, 46.1 µM
[23] = RPMI 5 mM glucose + 10% dialyzed FBS, 0.000781 µM
[24] = RPMI 5 mM glucose + 10% dialyzed FBS, 0.00234 µM
[25] = RPMI 5 mM glucose + 10% dialyzed FBS, 0.00702 µM
[26] = RPMI 5 mM glucose + 10% dialyzed FBS, 0.0211 µM
[27] = RPMI 5 mM glucose + 10% dialyzed FBS, 0.0632 µM
[28] = RPMI 5 mM glucose + 10% dialyzed FBS, 0.19 µM
[29] = RPMI 5 mM glucose + 10% dialyzed FBS, 0.569 µM
[30] = RPMI 5 mM glucose + 10% dialyzed FBS, 1.71 µM
[31] = RPMI 5 mM glucose + 10% dialyzed FBS, 5.12 µM
[32] = RPMI 5 mM glucose + 10% dialyzed FBS, 15.4 µM
[33] = RPMI 5 mM glucose + 10% dialyzed FBS, 46.1 µM

Compound	cell viability [1]	cell viability [2]	cell viability [3]	cell viability [4]	cell viability [5]	cell viability [6]	cell viability [7]	cell viability [8]	cell viability [9]	cell viability [10]	cell viability [11]	cell viability [12]	cell viability [13]	cell viability [14]	cell viability [15]	cell viability [16]	cell viability [17]	cell viability [18]	cell viability [19]	cell viability [20]	cell viability [21]	cell viability [22]	cell viability [23]	cell viability [24]	cell viability [25]	cell viability [26]	cell viability [27]	cell viability [28]	cell viability [29]	cell viability [30]	cell viability [31]	cell viability [32]	cell viability [33]
CC[C@@H]1C(=O)N(C)c2cnc(Nc3ccc(C(=O)NC4CCN(C)CC4)cc3OC)nc2N1C1CCCC1	116%	123%	112%	84.8%	13.1%	13.3%	13.4%	16%	16.5%	11.4%	4.01%	126%	123%	116%	107%	15.6%	15.3%	17.5%	15.4%	15%	12.9%	4.84%	116%	124%	121%	114%	19.4%	18.7%	19.7%	20.8%	21.2%	17.8%	4.69%
CCOC(=O)[C@@H](N)CCC(=O)N[C@@H](CSCc1ccccc1)C(=O)N[C@@H](C(=O)OCC)c1ccccc1	109%	124%	128%	126%	131%	131%	129%	132%	139%	140%	123%																						
COC(=O)[C@H](c1ccccc1Cl)N1CCc2sccc2C1	95.8%	99.1%	100%	109%	108%	113%	107%	110%	102%	15.7%	12.9%	101%	113%	120%	117%	120%	125%	122%	113%	115%	21.4%	14.1%	91.6%	105%	109%	111%	115%	111%	118%	117%	104%	45.9%	18.7%
Oc1ccc2ccccc2c1SSc1c(O)ccc2ccccc12	98.4%	100%	105%	108%	106%	109%	110%	109%	109%	105%	94.2%	105%	114%	106%	107%	101%	109%	116%	109%	106%	101%	62.2%	88.3%	98.9%	95.5%	109%	99.2%	104%	105%	103%	98.3%	94.3%	52.3%
C[N]1C=C(C=N1)C2=CC=C3N=CC\4=C(N(C(=O)\C=C4)C5=CC6=C(CCN6C(=O)C=C)C=C5)C3=C2	106%	121%	109%	114%	112%	115%	105%	95.4%	79.9%	20.8%	20.4%	123%	112%	118%	114%	110%	113%	111%	98%	74.6%	7.13%	5.07%	116%	128%	117%	120%	115%	126%	119%	98.4%	82.2%	6.85%	4.97%
COc1cc2c(Nc3ccc(Cl)c(Cl)c3F)ncnc2cc1OC[C@@H]1C[C@@H]2CN(C)C[C@@H]2C1	95.2%	102%	108%	112%	100%	110%	104%	104%	108%	81.8%	5.15%	95.3%	102%	98%	105%	109%	112%	114%	110%	119%	106%	5.73%	108%	114%	108%	113%	117%	117%	115%	111%	113%	89.6%	4.74%
CCN(CC)CCCC(C)Nc1nc(C)cc(Nc2ccc3nc(C)cc(N)c3c2)n1 (stereo not drawn)	101%	107%	109%	117%	122%	122%	126%	115%	130%	114%	118%	108%	109%	104%	121%	117%	126%	124%	112%	129%	107%	112%	107%	113%	111%	120%	117%	123%	126%	124%	126%	118%	101%
CC(C)n1cnc2c(NCCc3ccc(O)cc3)nc(-c3csc4ccccc34)nc21	105%	111%	109%	114%	119%	115%	107%	117%	24.9%	6.01%	2.93%	106%	108%	116%	107%	116%	112%	116%	129%	125%	53.5%	3.44%	98.3%	109%	112%	112%	119%	114%	118%	119%	130%	38.6%	2.43%
CC(C)(C)C1=CC(=C(NC(=O)C/2=C/NC3=C(C=CC=C3)C2=O)C=C1O)C(C)(C)C	123%	113%	124%	120%	121%	124%	120%	118%	118%	114%	112%	124%	139%	124%	133%	119%	124%	131%	115%	117%	116%	112%											
O=C(NCc1ccccc1)c1csc(Nc2ccncn2)n1	91%	95.5%	100%	110%	105%	108%	103%	85.2%	62.9%	5.82%	1.69%	94%	96.1%	92.9%	104%	106%	94.5%	104%	63.7%	37.6%	5.79%	2.56%	93.4%	101%	104%	112%	106%	97.2%	102%	80.6%	36%	6.99%	2.78%
CCCCc1nc2cc(/C=C/C(=O)NO)ccc2n1CCN(CC)CC	93%	98.5%	103%	95.9%	95.7%	104%	90.1%	83.7%	3.65%	2.43%	4.19%	86.9%	96.3%	96.2%	83.5%	101%	91.3%	95.7%	85.7%	12.3%	2.22%	3.51%	95.7%	95.6%	93.5%	90.4%	100%	101%	98.6%	79.5%	17.6%	1.97%	3.51%
COc1cc(Cl)cn2c(-c3cccc(NC4CNC4)n3)cnc12	125%	121%	131%	125%	129%	130%	131%	135%	129%	127%	139%																						
C=CC(=O)Nc1ccc2ncnc(Nc3ccc(OCc4cccc(F)c4)c(Cl)c3)c2c1	97%	111%	104%	105%	113%	109%	97.2%	105%	85.1%	10.7%	10.7%	97.3%	105%	109%	105%	110%	107%	118%	103%	83.1%	13.4%	12.3%	97.1%	111%	117%	122%	111%	118%	116%	107%	81%	21.4%	16.4%
Cc1ccc(/C=N/NC(=O)c2ccccc2Oc2ccccc2)o1	95.5%	107%	91.4%	96.5%	100%	98.3%	94.6%	94.9%	89.7%	89.7%	79.4%	94%	99%	90.6%	88.5%	91.3%	90.8%	91.6%	92.2%	95.1%	85.8%	63.9%	85.2%	82.6%	87.7%	89.4%	90.3%	90.3%	88.8%	82.4%	82.3%	86.4%	78.3%
C[N]1N=CC=C1C/2=C(\C)N(C(=O)C(=C2)/C(=O)NCC3=NC=C(C=C3)[S+](C)([O-])=O)C4=CC=CC(=C4)C(F)(F)F	107%	104%	106%	104%	107%	107%	105%	101%	98.3%	96.8%	88.5%	105%	102%	109%	109%	112%	93%	106%	97.3%	92%	91.1%	99.2%	108%	105%	112%	105%	106%	95%	110%	103%	102%	91.7%	97.5%
NC[C@H]1O[C@H](O[C@H]2[C@H](O)[C@@H](O[C@H]3O[C@H](CO)[C@@H](O)[C@H](N)[C@H]3O)[C@H](N)C[C@@H]2N)[C@H](N)C[C@@H]1O	112%	98.8%	110%	106%	117%	109%	106%	99.8%	110%	101%	96.6%	102%	111%	95.9%	116%	107%	106%	97.1%	85.9%	94%	98.5%	105%	110%	116%	117%	119%	112%	88.5%	79.7%	91.6%	91%	94.6%	117%
